Assay results taken from US10206906B2, “Synergistic combination of a phenolic-rich maple syrup extract and an antibiotic” (priority 2015, dated 2019).
≈ marks a conversion by molar mass, not a printed value. Like-named read-outs stand apart in the source and are kept apart here.

Columns and labels:
[1] = tested on: E. coli CFT073; test: Determination of minimum inhibitory concentration (MIC); type: cell-based; conditions: Escherichia coli
Protocol: (§1) A range of concentration of antibiotics, ciprofloxacin (0.0003-0.25 μg mL^−1) and carbenicillin (0.5-512 μg mL^−1), are chosen due to their known potency against all four bacterial strains. Dilutions are prepared in flat bottom, 96 well microtitre plates (Falcon™, Corning™, Fisher Scientific, ON, Canada). Each well of a microtitre plate is then inoculated with the desired bacterial strain (grown in MHB-II and diluted to […]) and the plate is incubated at 37° C. for 18 h under static conditions. Bacterial growth is assessed by (i) monitoring the optical density of the cell suspension in each well at 600 nm (OD600 nm), and (ii) the resazurin microtitre plate assay. In the resazurin microtitre plate assay, each well of a microtitre plate is supplemented with 20 μM resazurin, incubated in the dark for 20 min at room temperature, followed by fluorescence measurements at ex/em 570/590 nm using a TECAN Infinite M200 Pro microplate reader (Tecan Group Ltd., Switzerland). The lowest concentration of a compound able to prevent increase in OD600 nm and resazurin fluorescence intensity is recorded as the MIC for that compound.

[2] = tested on: P. aeruginosa PA14; test: as above; type: cell-based; conditions: Pseudomonas aeruginosa
Protocol: as §1

[3] = tested on: P. aeruginosa PAO1; test: as above; type: cell-based; conditions: Pseudomonas aeruginosa
Protocol: as §1

[4] = tested on: P. mirabilis HI4320; test: as above; type: cell-based; conditions: Proteus mirabilis
Protocol: as §1

[5] = tested on: E. coli CFT073; test: Checkerboard microdilution assay (growth inhibition synergy); type: cell-based, Escherichia coli
Protocol: (§2) The checkerboard microdilution assay is used for evaluation of in vitro antimicrobial synergy between two compounds (i.e., antibiotic/PRMSE, antibiotic/pure phenolic compound, and pure phenolic compounds with each other). Two-fold serial dilutions are prepared in MHB-II for each of the two compounds under study. The serial dilutions are then loaded into 96 well plates to achieve combinations having different concentrations of each of the two compounds. Each well is subsequently inoculated with 10^6 CFU mL^−1 of the desired bacterial strain and incubated at 37° C. for 18 h under static conditions. The Fractional Inhibitory Concentration Index (FICI) for each combination is calculated by using the following formula: FICcomponent 1=MICcomponent 1, in combination/MICcomponent 1,alone FICI=FICcomponent 1+FICcomponent 2
(§3) The FICIs are interpreted as follows: FICI of […] (synergy); 0.5<FICI ≤1 (no interaction/indifference); FICI of >4 (antagonism).

[6] = tested on: P. mirabilis HI4320; test: as above; type: cell-based, Proteus mirabilis
Protocol: as §2, §3

[7] = tested on: P. aeruginosa PA14; test: as above; type: cell-based, Pseudomonas aeruginosa
Protocol: as §2, §3

[8] = tested on: P. aeruginosa PAO1; test: as above; type: cell-based, Pseudomonas aeruginosa
Protocol: as §2, §3

[9] = tested on: G. mellonella larvae; test: G. mellonella larvae survival after injection of extract or antibiotic alone; type: in vivo, Galleria mellonella; conditions: injected alone; PRMSE 12.5 mg/mL, ciprofloxacin 0.03 μg/mL; within 72 h
Protocol: Each data set is representative of experiments with five larvae per condition in triplicate.
G. mellonella infection assay is performed as described previously with some modification (Jander et al., 2000, J Bacteriol., 182: 3843-3845). Briefly, PA14 culture grown overnight in TSB broth is diluted 1:100 in the same growth medium and further grown to OD600 nm of 1.27 at 37° C. under 100 rpm shaking. Freshly grown culture is centrifuged, and pellets are washed and resuspended in 10 mM MgSO4 to an OD600 of 0.1. […] Ampicillin is used to prevent infection by bacterial contaminants on the surface of the larvae at a final concentration of approximately 5 ng per larva during survival phase. G. mellonella larvae are injected with 5 μL aliquot of each treatment solution using prewashed Hamilton syringe. Five larvae are injected per each treatment and the assay is performed in triplicate. […] All injected larvae are incubated in Petri plates at 28° C. under the dark condition, and the number of dead larvae is scored daily after infection. […] A mock inoculation using prewashed Hamilton syringe is also performed in each experiment to monitor the killing due to physical injury or infection by pathogenic contaminants. […]

[10] = tested on: P. aeruginosa PA14 infection; test: Galleria mellonella larvae (wax moth) infection assay; type: in vivo; conditions: monotherapy at sub-MIC (PRMSE 12.5 mg/mL, ciprofloxacin 0.03 μg/mL)
Protocol: Each data set represents one experiment with five larvae per condition in triplicate, the experiment repeated twice (*P<0.05, Mantel-cox test, n=6).
Briefly, PA14 culture grown overnight in TSB broth is diluted 1:100 in the same growth medium and further grown to OD600 nm of 1.27 at 37° C. under 100 rpm shaking. Freshly grown culture is centrifuged, and pellets are washed and resuspended in 10 mM MgSO4 to an OD600 of 0.1. To prepare the lethal dose of P. aeruginosa PA14 culture serial 10-fold dilutions are made in 10 mM MgSO4 supplemented with 1 mg/mL of ampicillin (adjusted to about 1-10^3 bacterial cells in 5 μL of suspension) containing or not containing PRMSE, without and with ciprofloxacin at sub-MICs. Ampicillin is used to prevent infection by bacterial contaminants on the surface of the larvae at a final concentration of approximately 5 ng per larva during survival phase. G. mellonella larvae are injected with 5 μL aliquot of each treatment solution using prewashed Hamilton syringe. Five larvae are injected per each treatment and the assay is performed in triplicate. PRMSE and ciprofloxacin at sub-MICs are assessed individually to monitor adverse effect on larvae survival. […] All injected larvae are incubated in Petri plates at 28° C. under the dark condition, and the number of dead larvae is scored daily after infection. […]

[11] = tested on: P. aeruginosa PA14 lawn; test: In vitro analysis of hemolymph recovered from treated G. mellonella larvae; set-up: species or system Galleria mellonella; conditions: hemolymph recovered 3 h post-injection, spotted on PA14 lawn, 24 h at 37° C.
Protocol: Larvae were injected with PRMSE (mg/mL) or Cip (μg/mL) alone and in combination, and hemolymph recovered 3 h after treatment were spotted on Pseudomonas isolation agar plates previously inoculated with PA14 cells to produce a lawn of confluent growth. The plate was observed after 24 h of incubation at 37° C. The experiment was performed with three larvae per each condition in triplicate. S-control: saline control.
To rule out any growth-inhibitory effect of PRMSE on PA14 cells due to induction of the immune response, production of antimicrobial peptides or transformation of the extract into a toxic compound(s) in the larval hemolymph, an additional set of larvae are injected with 5 μL of PRMSE without and with ciprofloxacin (sub-MICs) or saline solution as a control. The larval hemolymph is recovered at 3 h after the treatment and 5 μL aliquot of each larval hemolymph sample is spotted on the Pseudomonas isolation agar (BD-Difco) plates previously inoculated with PA14 cells to produce a lawn of confluent growth. The appearance of growth inhibition halos is verified after 24 h of incubation at 37° C.

[12] = tested on: D. melanogaster flies; test: D. melanogaster survival when fed extract or antibiotic individually; type: in vivo, Drosophila melanogaster; conditions: PRMSE 6.25 mg/mL, ciprofloxacin 0.015 μg/mL, within 264 h
Protocol: As well, antibiotic ciprofloxacin is analyzed in combination with PRMSE for its synergistic anti-infective interactions. Fruit flies (D. melanogaster) are infected orally in fly feeding assay as before (Lutter et al., 2008, Infect Immun., 76: 1877-1888), with some modifications. Briefly, flies are anesthetized under a gentle stream of carbon dioxide. Male flies (3- to 5-days-old) are starved of food and water for 5-6 h and separated into vials (10 per vial) containing 5 ml of 5% sucrose agar (sterile) without and with phenolic extract without and with antibiotic at sub-MICs and 2.3-cm filter paper disks (sterile) containing freshly grown bacterial culture suspension. To achieve this freshly grown culture, an overnight P. aeruginosa PA14 culture is inoculated in 6 mL TSB culture and incubated at 37° C. and 100 rpm until OD600=3.0. This culture is centrifuged at 12,000×g for 1 min and the resulting pellet resuspended in 150 μL of sterile 5% sucrose, without and with sub-MICs of phenolic extract or antibiotic. […] Post-infection mortality of flies is monitored daily for 14 days, with each treatment tested twice in duplicate.

[13] = tested on: P. aeruginosa PA14 infection; test: Drosophila melanogaster (fruit fly) feeding infection assay; type: in vivo; conditions: monotherapy at sub-MIC (PRMSE 6.25 mg mL^−1, ciprofloxacin 0.015 μg mL^−1)
Protocol: Mortality was scored daily for 14 days. […] Results represent measurements from experiments performed with duplicates, twice (*p<0.01, Log-rank Mantel-cox test).
In this infection assay, PRMSE was analyzed for its anti-infective activity. As well, antibiotic ciprofloxacin is analyzed in combination with PRMSE for its synergistic anti-infective interactions. Fruit flies (D. melanogaster) are infected orally in fly feeding assay as before (Lutter et al., 2008, Infect Immun., 76: 1877-1888), with some modifications. Briefly, flies are anesthetized under a gentle stream of carbon dioxide. Male flies (3- to 5-days-old) are starved of food and water for 5-6 h and separated into vials (10 per vial) containing 5 ml of 5% sucrose agar (sterile) without and with phenolic extract without and with antibiotic at sub-MICs and 2.3-cm filter paper disks (sterile) containing freshly grown bacterial culture suspension. To achieve this freshly grown culture, an overnight P. aeruginosa PA14 culture is inoculated in 6 mL TSB culture and incubated at 37° C. and 100 rpm until OD600=3.0. This culture is centrifuged at 12,000×g for 1 min and the resulting pellet resuspended in 150 μL of sterile 5% sucrose, without and with sub-MICs of phenolic extract or antibiotic. […] Post-infection mortality of flies is monitored daily for 14 days, with each treatment tested twice in duplicate.

[14] = tested on: P. aeruginosa PA14; test: Survival of PA14 on sucrose filters during fly feeding assay; type: cell-based, Pseudomonas aeruginosa; conditions: PRMSE 6.25 mg mL-1, ciprofloxacin 0.015 μg mL-1, mono- and combination; six days
Protocol: Total viable bacterial counts per filter were determined every second day for filters containing bacterial cells on sucrose agar. PA14 cells on filter were untreated or treated with PRMSE (6.25 mg mL-1) or ciprofloxacin (0.015 μg mL-1) alone and in combination. Average data represent data from experiment performed in triplicate and error bars represent S.D.
To address this possibility, the survival of PA14 on the paper discs without and with sub-MICs of PRMSE or antibiotic under the same conditions as the fly feeding assay is analyzed. Enumeration of viable bacteria on filters during the infection period is performed using separate test vials with different treatments inoculated with P. aeruginosa PA14 and inoculated control sucrose vials that are sampled on alternative days, up to 6 days during infection period. Briefly, filters from the test vials are removed in a sterile environment, placed in 50 mL polypropylene tube containing 5 mL of LB broth and vortexed for 30 s. This LB medium containing the sampled bacterial cells is serially diluted in phosphate buffer saline solution (pH 7.4), and 30 μL is plated onto Pseudomonas isolation agar (BD-Difco). Colonies are enumerated after the incubation at 37° C. for 24 h.

[15] = tested on: E. coli CFT073, P. mirabilis HI4320, P. aeruginosa PAO1 and PA14; test: Checkerboard microdilution assay, summary over the four strains; type: cell-based; conditions: labelled constituent + gallic acid; range over the four strains
Protocol: as §2, §3

[16] = ciprofloxacin/PRMSE combination, FIC of the labelled component
[17] = ciprofloxacin in combination with the labelled phenolic constituent
[18] = labelled constituent + catechaldehyde, * = synergistic
[19] = labelled constituent + catechol, * = synergistic
[20] = labelled constituent + gallic acid, * = synergistic
[21] = labelled constituent combined with catechaldehyde
[22] = labelled constituent combined with catechol
[23] = labelled constituent combined with gallic acid
[24] = labelled phenolic constituent + ciprofloxacin, * = synergistic interaction
[25] = labelled phenolic constituent in combination with ciprofloxacin

O=C(O)c1cn(C2CC2)c2cc(N3CCNCC3)c(F)cc2c1=O [ciprofloxacin, reference compound]
MIC ([1]; CFT073, antibiotic alone, MHB-II, 37° C., 18 h, read-out: MIC): 0.008 µg/mL (≈ 2.41e-05 mM) | MIC ([2]; PA14, antibiotic alone, MHB-II, 37° C., 18 h, read-out: MIC): 0.06 µg/mL (≈ 0.000181 mM) | MIC ([3]; PAO1, antibiotic alone, MHB-II, 37° C., 18 h, read-out: MIC): 1 µg/mL (≈ 0.00302 mM) | MIC ([4]; HI4320, antibiotic alone, MHB-II, 37° C., 18 h, read-out: MIC): 0.016 µg/mL (≈ 4.83e-05 mM) | FIC (Fractional Inhibitory Concentration) [5, 16]: 0.25 | FIC (Fractional Inhibitory Concentration) [6, 16]: 0.02 | FIC (Fractional Inhibitory Concentration) [7, 16]: 0.03 | FIC (Fractional Inhibitory Concentration) [8, 16]: 0.03 | killing effect on G. mellonella larvae [9]: no killing effect | protection of G. mellonella larvae against PA14 infection [10]: fails to protect | effect of recovered larval hemolymph on PA14 growth in vitro [11]: no effect | killing effect on D. melanogaster flies [12]: no killing effect | protection of D. melanogaster against PA14 infection [13]: fails to protect | culturability of PA14 cells on filter paper discs [14]: no significant difference

COc1cc(C=O)cc(OC)c1O [syringaldehyde]
MIC ([1]; CFT073, 18 h): 5000 µg/mL (≈ 27.4 mM) | MIC ([2]; PA14, 18 h): 5000 µg/mL (≈ 27.4 mM) | MIC ([3]; PAO1, 18 h): 5000 µg/mL (≈ 27.4 mM) | MIC ([4]; HI4320, 18 h): 5000 µg/mL (≈ 27.4 mM) | FIC of ciprofloxacin [5, 17]: 0.5 | FICI, catechaldehyde [5, 18]: 0.31* | FICI, catechol [5, 19]: 0.31* | FICI, gallic acid [5, 20]: 0.75 | FIC, catechaldehyde [5, 21]: 0.25 | FIC, catechol [5, 22]: 0.25 | FIC, gallic acid [5, 23]: 0.5 | FICI [5, 24]: 0.75 | FIC of compound [5, 25]: 0.25 | FIC of ciprofloxacin [6, 17]: 0.5 | FICI, catechaldehyde [6, 18]: 0.75 | FICI, catechol [6, 19]: 0.75 | FICI, gallic acid [6, 20]: 1 | FIC, catechaldehyde [6, 21]: 0.25 | FIC, catechol [6, 22]: 0.25 | FIC, gallic acid [6, 23]: 0.5 | FICI [6, 24]: 1 | FIC of compound [6, 25]: 0.5 | FIC of ciprofloxacin [7, 17]: 0.5 | FICI, catechaldehyde [7, 18]: 1 | FICI, catechol [7, 19]: 1 | FICI, gallic acid [7, 20]: 0.63 | FIC, catechaldehyde [7, 21]: 0.5 | FIC, catechol [7, 22]: 0.5 | FIC, gallic acid [7, 23]: 0.13 | FICI [7, 24]: 0.75 | FIC of compound [7, 25]: 0.25 | FIC of ciprofloxacin [8, 17]: 1 | FICI, catechaldehyde [8, 18]: 0.5* | FICI, catechol [8, 19]: 0.5* | FICI, gallic acid [8, 20]: 1 | FIC, catechaldehyde [8, 21]: 0.25 | FIC, catechol [8, 22]: 0.25 | FIC, gallic acid [8, 23]: 0.5 | FICI [8, 24]: 2 | FIC of compound [8, 25]: 1 | FICIs of pairs with gallic acid [15]: 0.63-1.0
